For the assay, the system named is M. tuberculosis Spec. 210. Put plainly: Tuberculostatic activity, Microplate Alamar Blue Assay (MABA). It is filed as cell-based, Mycobacterium tuberculosis. The settings on record: M. tuberculosis Spec. 210, patient isolate resistant to PAS, INH, ETB, RMP. The protocol: The synthesized compounds were examined in vitro for their tuberculostatic activity using MABA method (Microplate Alamar Blue Assay method). […] The inoculum was prepared from fresh LJ culture in Middlebrook 7H9 Broth medium with OADC, adjusted to a no. 1 McFarland tube, and diluted 1:20. […] Each test compound stock solution was diluted in Middlebrook 7H9 Broth medium with OADC by fourfold, the final highest concentration to be tested. Compounds were diluted serially in sterile 96-well microtiter plates using 100 μL Middlebrook 7H9 Broth medium with OADC. […] A growth control containing no antibiotic and a sterile control without inoculation were also prepared on each plate. The plates were incubated at 37 °C for a week. After the incubation period, 30 μL of Alamar blue solution was added to each well, and the plate was re-incubated for 24 h. Growth is indicated by a color change from blue to pink and the lowest concentration of compound that prevented the color change was noted as its MIC. Isoniazid (INH), Rifampicin (RMP), Streptomycin (SM), and Ethambutol (EMB) as reference drugs were used for comparison.

Where [1] appears, read: Mycobacterium tuberculosis, read-out: MIC.

≈ marks a conversion by molar mass, not a printed value. Read-outs that look alike come from different tables or passages of the source.

MIC data for nine molecules are collected here from paper PMC9779606, “Synthesis, Structural Characterization and Biological Activity Evaluation of Novel Cu(II) Complexes with 3-(trifluoromethyl)phenylthiourea Derivatives” (International Journal of Molecular Sciences, 2022).

Usually MIC stands for the lowest concentration found to suppress growth. For the molecule `CC(NC(=S)[N-]c1cccc(C(F)(F)F)c1)c1ccccc1.CC(NC(=S)[N-]c1cccc(C(F)(F)F)c1)c1ccccc1.[Cu+2]` (racemic) [Cu2, Copper(II) Complex with 1-(1-phenylethyl)-3-[3-(trifluoromethyl)phenyl]thiourea], the MIC is on record as 8 µg/mL.

The molecule `FC(F)(F)c1cccc([N-]C(=S)NCCc2ccccc2)c1.FC(F)(F)c1cccc([N-]C(=S)NCCc2ccccc2)c1.O.[Cu+2]` [Cu1, Copper(II) Complex with 1-(2-phenylethyl)-3-[3-(trifluoromethyl)phenyl]thiourea] returned an MIC of 16 µg/mL.

The molecule `FC(F)(F)c1cccc([N-]C(=S)NCc2ccccc2)c1.FC(F)(F)c1cccc([N-]C(=S)NCc2ccccc2)c1.[Cu+2]` [Cu3, Copper(II) Complex with 1-benzyl-3-[3-(trifluoromethyl)phenyl]thiourea] registered an MIC of 16 µg/mL.

`FC(F)(F)c1cccc([N-]C(=S)Nc2cccc(Br)c2)c1.FC(F)(F)c1cccc([N-]C(=S)Nc2cccc(Br)c2)c1.[Cu+2]` [Cu4, Copper(II) Complex with 1-(3-bromophenyl)-3-[3-(trifluoromethyl)phenyl] thiourea] gave an MIC of 4 µg/mL.

Regarding `O.O=[N+]([O-])c1cc(NC(=S)[N-]c2cccc(C(F)(F)F)c2)ccc1Cl.O=[N+]([O-])c1cc(NC(=S)[N-]c2cccc(C(F)(F)F)c2)ccc1Cl.[Cu+2]` [Cu5, Copper(II) Complex with 1-(4-chloro-3-nitrophenyl)-3-[3-(trifluoromethyl)phenyl]thiourea], the MIC was found to be 4 µg/mL.

Take `CC[C@@H](CO)NCCN[C@@H](CC)CO` [Ethambutol (EMB), Ethambutol, reference compound]: the MIC under setting [1] amounted to 32 µg/mL (≈ 157 µM).

With `NNC(=O)c1ccncc1` [Isoniazid (INH), Isoniazid, reference compound], under setting [1], the MIC amounted to 16 µg/mL (≈ 117 µM).

Take `CO[C@H]1/C=C/O[C@@]2(C)Oc3c(C)c(O)c4c(O)c(c(/C=N/N5CCN(C)CC5)c(O)c4c3C2=O)NC(=O)/C(C)=C\C=C\[C@H](C)[C@H](O)[C@@H](C)[C@@H](O)[C@@H](C)[C@H](OC(C)=O)[C@@H]1C` [Rifampicin (RMP), Rifampicin, reference compound]: the MIC under setting [1] was 32 µg/mL (≈ 38.9 µM).

Regarding `[H]/N=C(/N)N[C@H]1[C@H](O)[C@@H](O)[C@H](O[C@@H]2O[C@@H](C)[C@](O)(C=O)[C@H]2O[C@@H]2O[C@@H](CO)[C@H](O)[C@@H](O)[C@@H]2NC)[C@@H](N/C(N)=N\[H])[C@@H]1O` [Streptomycin (SM), Streptomycin, reference compound], the MIC under setting [1] worked out at 16 µg/mL (≈ 27.5 µM).
